Source: paper PMC4557804 (Journal of medicinal chemistry, 2015)
Structures can show the parent of a compound that is named as a salt.

Tests used:
[1] = cited from earlier work
[2] = target: T1, SphK1 (Homo sapiens, UniProt Q9NYA1); assay: biochemical; conditions: read-out: inhibition at SphK1
[3] = target: T2, SphK2 (Homo sapiens, UniProt Q9NRA0); assay: biochemical; conditions: for inhibition at 1 µM: read-out: inhibition at SphK2
T2 sequence (Q9NRA0 1-654): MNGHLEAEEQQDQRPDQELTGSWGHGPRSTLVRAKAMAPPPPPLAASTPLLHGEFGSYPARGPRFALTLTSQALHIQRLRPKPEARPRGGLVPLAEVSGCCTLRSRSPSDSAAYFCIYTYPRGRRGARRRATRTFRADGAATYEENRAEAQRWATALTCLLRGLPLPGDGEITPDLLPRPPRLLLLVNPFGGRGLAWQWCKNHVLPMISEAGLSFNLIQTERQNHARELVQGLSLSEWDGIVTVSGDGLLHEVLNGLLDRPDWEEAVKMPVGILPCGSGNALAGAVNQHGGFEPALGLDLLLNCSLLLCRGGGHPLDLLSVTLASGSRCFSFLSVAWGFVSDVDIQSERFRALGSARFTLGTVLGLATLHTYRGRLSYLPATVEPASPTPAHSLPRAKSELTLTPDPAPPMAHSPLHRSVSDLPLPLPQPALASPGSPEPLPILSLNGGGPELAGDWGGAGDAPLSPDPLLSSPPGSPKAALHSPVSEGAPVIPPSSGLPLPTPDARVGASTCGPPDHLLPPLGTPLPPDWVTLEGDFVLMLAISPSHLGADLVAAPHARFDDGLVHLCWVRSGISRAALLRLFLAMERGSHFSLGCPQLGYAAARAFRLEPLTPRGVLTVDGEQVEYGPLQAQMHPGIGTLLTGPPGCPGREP

[4] = target: T1, SphK1; conditions: screen at 1 μM
[5] = target: T2, SphK2; conditions: screen at 1 μM

T1 sequence (Q9NYA1 whole entry, species assumed): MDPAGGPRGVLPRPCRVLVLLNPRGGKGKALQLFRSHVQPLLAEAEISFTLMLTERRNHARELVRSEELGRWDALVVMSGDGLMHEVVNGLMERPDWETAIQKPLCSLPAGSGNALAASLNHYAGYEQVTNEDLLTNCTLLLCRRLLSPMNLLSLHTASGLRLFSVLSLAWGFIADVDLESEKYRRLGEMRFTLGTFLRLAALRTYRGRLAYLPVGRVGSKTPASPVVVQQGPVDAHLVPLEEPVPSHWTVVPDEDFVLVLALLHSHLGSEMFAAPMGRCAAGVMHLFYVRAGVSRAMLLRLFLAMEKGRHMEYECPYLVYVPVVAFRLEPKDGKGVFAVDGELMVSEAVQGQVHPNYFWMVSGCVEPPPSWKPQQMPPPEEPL

inhibition at 1 µM [2] | inhibition at 1 µM [3] | inhibitory activity at SphK1 [4] | inhibitory activity at SphK2 [5] | SMILES | further results
 |  | inactive | inactive | CCCCCCCCCCc1ccc(NC(=O)[C@H]2CCCN2C(=N)N)cc1.O=C(O)C(F)(F)F [Compound 29b, (R)-Amino(2-((4-decylphenyl)carbamoyl)pyrrolidin-1-yl)-methaniminium 2,2,2-Trifluoroacetate] | 
 |  | essentially inactive | essentially inactive | CCCCCCCCc1ccc(-c2noc(C3CN(C(=N)N)C3)n2)cc1.Cl [Compound 20a, Amino(3-(3-(4-octylphenyl)-1,2,4-oxadiazol-5-yl)azetidin-1-yl)methaniminium Chloride] | 
 |  | inactive | inactive | CCCCCCCCCCc1ccc(NC(=O)[C@@H]2CCCN2C(=N)N)cc1.O=C(O)C(F)(F)F [Compound 29a, (S)-Amino(2-((4-decylphenyl)carbamoyl)pyrrolidin-1-yl)-methaniminium 2,2,2-Trifluoroacetate] | 
 |  | essentially inactive | essentially inactive | CCCCCCCCc1ccc(-c2noc([C@@H]3CCN(C(=N)N)C3)n2)cc1.Cl [Compound 20b, (R)-Amino(3-(3-(4-octylphenyl)-1,2,4-oxadiazol-5-yl)-pyrrolidin-1-yl)methaniminium Chloride] | 

Continued, molecule first:

SMILES | inhibition at 1 µM [2] | inhibition at 1 µM [3] | inhibitory activity at SphK1 [4] | inhibitory activity at SphK2 [5] | further results
O=C(NCc1ccncc1)C12CC3CC(C1)CC(c1ccc(Cl)cc1)(C3)C2 [ABC294640] |  |  |  |  | S1P levels in vivo [1]: decreased
CCCCCCCCc1ccc(-c2noc([C@@H](NC(=N)N)C(C)C)n2)cc1 [Compound 7d, (S)-1-(2-Methyl-1-(3-(4-octylphenyl)-1,2,4-oxadiazol-5-yl)-propyl)guanidine Hydrochloride] | < 20% | < 20% |  |  | 
CCCCCCCCc1ccc(-c2noc(CNC(=N)N)n2)cc1 [Compound 7a, 1-((3-(4-Octylphenyl)-1,2,4-oxadiazol-5-yl)methyl)guanidine Hydrochloride] | < 20% | < 20% |  |  | 
CCCCCCCCc1ccc(-c2noc([C@H](CO)NC(=N)N)n2)cc1 [Compound 7e, (S)-Amino((2-hydroxy-1-(3-(4-octylphenyl)-1,2,4-oxadiazol-5-yl)ethyl)amino)methaniminium Chloride] | < 20% | < 20% |  |  | 
CCCCCCCCc1ccc(-c2noc(CN(C)C(=N)N)n2)cc1.Cl [Compound 7b, 1-Methyl-1-((3-(4-octylphenyl)-1,2,4-oxadiazol-5-yl)methyl)-guanidine Hydrochloride] |  |  | inactive | inactive | 
CCCCCCCCc1ccc(CNC(=O)[C@@H]2CCCN2C(=N)N)cc1.O=C(O)C(F)(F)F [Compound 31, (S)-Amino(2-((4-octylbenzyl)carbamoyl)pyrrolidin-1-yl)-methaniminium 2,2,2-Trifluoroacetate] |  |  | no significant inhibitory effect | no significant inhibitory effect | 
CCCCCCCCc1ccc(-c2noc([C@H](C)NC(=N)N)n2)cc1 [Compound 7c, (S)-1-(1-(3-(4-Octylphenyl)-1,2,4-oxadiazol-5-yl)ethyl)-guanidine Hydrochloride] | < 20% | < 20% |  |  | 
CCCCCCCCc1ccc(-c2noc([C@@H]3CCN3C(=N)N)n2)cc1 [Compound 7j, (S)-2-(3-(4-Octylphenyl)-1,2,4-oxadiazol-5-yl)azetidine-1-carboximidamide Hydrochloride] |  |  |  |  | Ki [3]: 1000 nM
